Results on 12 compounds are retold here after PubChem BioAssay (NCI).

What all share (assay): NCI anticancer screen, dose series, 48 h
In test [1] the test system is PC-3 prostate.
Test [2] deals with LOX IMVI melanoma.
Test [3] relates to MOLT-4 leukemia.
Test [4] has as its system T-47D breast.
The subject of test [5] is MDA-MB-231 breast.
Test [6] deals with SW-620 colon.
The subject of test [7] is NCI-H522 lung.
In test [8] the test system is HT29 colon.
Test [9] concerns HS 578T breast.
In test [10] the test system is HCT-15 colon.

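Dose response: 5 concentrations. Exposure: 48 h. Format: 96-well plates. Endpoint: linear interpolation; highest concentration if not reached. GI50 is the concentration that inhibits growth by half. TGI: total growth inhibition.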 Where a SMILES comes first, the peptide text is derived from it. [ ]: non-standard residue; d: D form. The star is where a group is joined. dTle = CC(C)(C)[C@@H](N)C(=O)O; 4Abz = Nc1ccc(C(=O)O)cc1; NHOH = ON*

For the compound `Oc1c(Cl)cc(Cl)cc1C(c1cc(Cl)cc(Cl)c1O)C(Cl)(Cl)Cl`, the GI50 in test [1] is 2.19 µM; in test [2] it was 2.08 µM; in [3] it was 3.67 µM; in test [4], 2.39 µM; in [5], 1.59 µM; in test [6], 2.98 µM. Also, the GI50 is 0.964 µM in test [7], 3.03 µM in test [8], 2.28 µM in test [9] and 0.825 µM in test [10]. The TGI in test [1] was found to be 10.9 µM; in [2] it was 5.57 µM; in [3], 10.4 µM; in test [4] it was 11.3 µM; in [5] it was 4.81 µM; in [6], 12.2 µM. Moreover, the TGI in [7] came out at 26.7 µM; in [8] it was 11.4 µM; in [9], 10.4 µM; in test [10] it was 13.8 µM.

For the compound `CC(C(N)C(=O)NC(C(=O)O)C1OC(n2ccc(=O)[nH]c2=O)C(O)C1O)C(O)c1ccc(O)cn1` (stereo not given), the TGI in test [1], in test [2], in [3], in test [4], in test [5] and in [6] was more than 100 µM throughout. For the same compound, the TGI in test [7], in [8], in test [9] and in [10] was more than 100 µM throughout.

For the compound `O=C(O)c1c(=O)cccc2ssc12`, the GI50 in test [1] was 1.83 µM; in test [2], 1.78 µM; in test [3], 2.13 µM; in test [4] it was 2.15 µM; in test [5], 2.29 µM; in test [6] it was 2.22 µM. The GI50 is 1.61 µM in test [7], 1.89 µM in [8], 2.43 µM in test [9] and 1.73 µM in [10]. Further, the TGI in test [1] is 3.58 µM; in [2] it was 3.42 µM; in test [3], 5.11 µM; in [4], 5.24 µM; in test [5] it was 4.67 µM; in [6] it was 5.59 µM. Besides, the TGI in [7] was 3.24 µM; in test [8], 3.64 µM; in test [9], 5.54 µM; in test [10] it was 3.52 µM.

In the case of `O=C1OC(=O)C2CCCC3CCCC1C32` (stereo not given), the TGI in test [1], in [2], in [3], in test [4], in test [5] and in test [6] was more than 100 µM throughout. For the same compound, the TGI in test [7], in [8], in [9] and in test [10] was more than 100 µM in each case.

As to `NS(=O)(=O)c1ccc(N(/C=C/C(=O)C(F)(F)F)Cc2ccc(Cl)cc2)cc1`, the GI50 in test [1] is 19.6 µM; in test [2], 21.8 µM; in test [3] it was 40.1 µM; in test [4], 20.8 µM; in test [5], 18.3 µM; in test [6] it was 30.5 µM. Besides, the GI50 in test [7] is 12.6 µM; in test [8], 43.9 µM; in test [9], 38.1 µM; in test [10], 31.1 µM. Also, the TGI was 59 µM in [1]; 42.9 µM in test [2]; more than 100 µM in test [3]; 97.5 µM in test [4]; 57.8 µM in test [5]; more than 100 µM in test [6]. For the same compound, the TGI in test [7] was 38.4 µM; in test [8] it was more than 100 µM; in test [9], more than 100 µM; in test [10] it was 87.2 µM.

Turning to `Cc1cc(-c2ccccn2)cc(C)c1/C=C/c1cncc(-c2nn[nH]n2)c1`, the GI50 in test [1], in test [2], in test [3], in [4], in test [5] and in test [6] was more than 25 µM throughout. For the same compound, the GI50 in test [7], in [8], in test [9] and in test [10] was more than 25 µM each time. For the same compound, the TGI in test [1], in test [2], in test [3], in [4], in [5] and in test [6] was more than 25 µM in each case. The TGI in [7], in [8], in test [9] and in [10] was more than 25 µM each time.

Regarding `NS(=O)(=O)NCCNc1nonc1C(=Nc1ccc(F)c(Br)c1)NO`, the GI50 in test [1] is 31.8 µM; in test [2], 27.9 µM; in [3] it was 30.8 µM; in test [4] it was 35.1 µM; in test [5], 34 µM; in [6], 51.1 µM. The GI50 in [7] is 36.2 µM; in test [8], 66 µM; in [9], 30.3 µM; in test [10] it was 39.4 µM. The TGI in test [1], in [2], in test [3], in test [4], in [5] and in test [6] was more than 100 µM in each case. The TGI in test [7] was 97.5 µM; in test [8], more than 100 µM; in test [9], more than 100 µM; in test [10], more than 100 µM.

`C[C@@H](NC(=O)[C@H](NC(=O)[C@@H]1CCCN1C(=O)CNC(=O)c1ccc(N)cc1)C(C)(C)C)C(=O)NO` (H-[4Abz]GP[dTle][dA]-{NHOH}): the GI50 in test [1], in test [2], in test [3], in [4], in test [5] and in test [6] was more than 100 µM in each case. Also, the GI50 in test [7], in test [8], in test [9] and in test [10] was more than 100 µM throughout. In addition, the TGI in test [1], in test [2], in test [3], in [4], in [5] and in test [6] was more than 100 µM each time. Besides, the TGI in test [7], in test [8], in test [9] and in test [10] was more than 100 µM each time.

Turning to `CCCCCCCCCCCCCCCCCCOCC(CCP(=O)(CP(=O)(O)O)Oc1ccccc1)OCCCCCCCCCCCCCCCCCC` (stereo not given), the TGI in test [1], in [2], in test [3], in [4], in test [5] and in test [6] was more than 100 µM in each case. In addition, the TGI in [7], in test [8], in test [9] and in test [10] was more than 100 µM each time.

On to `O=C1/C(=C/c2ccc(Cl)cc2)CCC/C1=C\c1ccc(Cl)cc1`, for which the GI50 was 5.46 µM in test [1]; 1.69 µM in [2]; 4.09 µM in [3]; 8.76 µM in test [4]; 9.83 µM in [5]; 2.36 µM in [6]. Besides, the GI50 in [7] is 2.78 µM; in [8] it was 2.7 µM; in test [9], 3.43 µM; in test [10] it was 3.39 µM. The TGI in test [1] is more than 100 µM; in test [2] it was 3.42 µM; in [3], more than 100 µM; in test [4] it was more than 100 µM; in [5], more than 100 µM; in [6], 6.39 µM. For the same compound, the TGI in test [7] is 8.52 µM; in test [8] it was 6.37 µM; in test [9] it was more than 100 µM; in test [10], more than 100 µM.

In the case of `CC1=C(C(=O)Nc2cc(Cl)c3[nH]ncc3c2)C(c2ccc(C(F)(F)F)cc2)CC(=O)N1` (stereo not given), the GI50 in [1] was more than 25 µM; in test [2], more than 20.4 µM; in test [3], 11.8 µM; in [4], more than 12.8 µM; in test [5], 13.7 µM; in [6], more than 25 µM. Moreover, the GI50 in test [7] is more than 18.7 µM; in [8], more than 25 µM; in test [9], 0.898 µM; in test [10], more than 25 µM. The TGI in test [1], in test [2], in test [3], in [4], in test [5] and in test [6] was more than 25 µM in each case. For the same compound, the TGI in [7], in test [8], in test [9] and in test [10] was more than 25 µM in each case.

As to `Cc1cc(N2CCOCC2)nc(N(CCCNc2ccnc3cc(Cl)ccc23)Cc2ccco2)n1`, the GI50 is 3.03 µM in test [1]; 1.58 µM in test [2]; 3.02 µM in [3]; 2.06 µM in [4]; 3.2 µM in test [5]; 2.73 µM in test [6]. Moreover, the GI50 was 2.69 µM in test [7], 1.83 µM in test [8], 4.03 µM in [9] and 2.37 µM in [10]. Moreover, the TGI in test [1] turned out to be 12.9 µM; in test [2], 3.81 µM; in test [3] it was 13.1 µM; in test [4], 7.26 µM; in test [5] it was 13.4 µM; in [6], 11.5 µM. Besides, the TGI worked out at 10.9 µM in [7], 8.57 µM in test [8], 25.7 µM in [9] and 11.6 µM in test [10].
